Test results from PubChem BioAssay (NCI).
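Values below derive from 48-hour exposures of cells grown in 96-well plates, with endpoints linearly interpolated between the two concentrations bracketing the appropriate inhibition level. GI50 marks 50% less growth. TGI marks complete inhibition of growth.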

Columns and labels:
Test in all cases: NCI tumour cell line growth inhibition, 48 h
ACHN renal = tested on: ACHN renal
NCI-H23 lung = tested on: NCI-H23 lung
OVCAR-5 ovarian = tested on: OVCAR-5 ovarian
SF-268 CNS = tested on: SF-268 CNS
SF-539 CNS = tested on: SF-539 CNS
SK-MEL-28 melanoma = tested on: SK-MEL-28 melanoma
SK-MEL-5 melanoma = tested on: SK-MEL-5 melanoma
U251 CNS = tested on: U251 CNS
UACC-257 melanoma = tested on: UACC-257 melanoma
UO-31 renal = tested on: UO-31 renal

SMILES	GI50 (ACHN renal)	TGI (ACHN renal)	GI50 (NCI-H23 lung)	TGI (NCI-H23 lung)	GI50 (OVCAR-5 ovarian)	TGI (OVCAR-5 ovarian)	GI50 (SF-268 CNS)	TGI (SF-268 CNS)	GI50 (SF-539 CNS)	TGI (SF-539 CNS)	GI50 (SK-MEL-28 melanoma)	TGI (SK-MEL-28 melanoma)	GI50 (SK-MEL-5 melanoma)	TGI (SK-MEL-5 melanoma)	GI50 (U251 CNS)	TGI (U251 CNS)	GI50 (UACC-257 melanoma)	TGI (UACC-257 melanoma)	GI50 (UO-31 renal)	TGI (UO-31 renal)
CNC(=O)n1ccc2cc(Oc3ccnc(NC(=O)c4ccc(C5CCN(CCO)CC5)cc4)c3)c(OCCOC)cc21	3.16 µM	10.7 µM	10.5 µM	24.4 µM	8.43 µM	22.7 µM	10.2 µM	23 µM	1.12 µM	2.56 µM	6.33 µM	19.2 µM	1.96 µM	3.86 µM	3.15 µM	12.3 µM	2.24 µM	5.73 µM	16.5 µM	33.2 µM
Cc1ccc(/C=C2\CN(C(=O)OC(C)(C)C)C/C(=C\c3ccc(C)cc3)C2=O)cc1	1.06 µM	> 100 µM	0.516 µM	> 100 µM	0.391 µM	> 100 µM	0.34 µM	> 100 µM	–	–	11.6 µM	> 100 µM	–	–	0.489 µM	> 100 µM	–	> 100 µM	1.16 µM	> 100 µM
NC(=S)N/N=C(/CC(=O)c1ccccc1)C(=O)Nc1ccc(Cl)c(Cl)c1	–	> 100 µM	–	> 100 µM	–	> 100 µM	–	> 100 µM	–	> 100 µM	–	> 100 µM	–	> 100 µM	–	> 100 µM	–	> 100 µM	–	> 100 µM
Nc1c(C(=O)Nc2cccc([N+](=O)[O-])c2)sc2nc3c(cc12)C(O)CCC3 (stereo unspecified)	30.6 µM	> 100 µM	> 100 µM	> 100 µM	> 100 µM	> 100 µM	9.62 µM	> 89.8 µM	5.06 µM	> 93.7 µM	16.9 µM	> 100 µM	3.59 µM	> 100 µM	6.3 µM	> 72.4 µM	> 29.8 µM	> 100 µM	> 100 µM	> 100 µM
CN(C)S(=O)(=O)c1ccc(NC(=O)COC(=O)c2ccc(S(=O)(=O)N3CCCCC3)cc2)cc1	> 100 µM	> 100 µM	> 100 µM	> 100 µM	> 100 µM	> 100 µM	> 100 µM	> 100 µM	> 100 µM	> 100 µM	> 100 µM	> 100 µM	> 100 µM	> 100 µM	> 100 µM	> 100 µM	> 100 µM	> 100 µM	> 100 µM	> 100 µM
C[C@@H](C(=O)Nc1ccc(Cl)cc1)C1CCC(c2ccnc3ccc(F)cc23)CC1 (stereo partly specified)	4.61 µM	> 100 µM	3.93 µM	56.4 µM	17.8 µM	> 100 µM	8.55 µM	60.9 µM	11.8 µM	47.7 µM	10.4 µM	> 100 µM	3.22 µM	11.8 µM	20 µM	> 100 µM	13.3 µM	53.7 µM	3.94 µM	> 100 µM
COc1nc(NC2OCC(OC(C)=O)C(OC(C)=O)C2OC(C)=O)c(N=CC=Nc2c(NC3OCC(OC(C)=O)C(OC(C)=O)C3OC(C)=O)nc(OC)n(C)c2=O)c(=O)n1C (stereo unspecified)	–	> 100 µM	–	> 100 µM	–	> 100 µM	–	> 100 µM	–	> 100 µM	–	> 100 µM	–	> 100 µM	–	> 100 µM	–	> 100 µM	–	> 100 µM
N#Cc1cnc2cc(OC[C@H](O)CO)c(NC(=O)CC3CSSC3)cc2c1Nc1ccc(OCc2cccc(F)c2)c(Cl)c1	1.73 µM	5.42 µM	0.772 µM	1.7 µM	0.872 µM	1.89 µM	0.537 µM	1.56 µM	0.791 µM	1.55 µM	0.126 µM	0.319 µM	0.841 µM	1.59 µM	0.465 µM	1.33 µM	1.01 µM	1.96 µM	2.11 µM	7.75 µM
COc1c2c(c3c(c1CCC(=O)O)OC(C)(C)C=C3)OC(C)(C)C=C2	–	> 100 µM	–	> 100 µM	–	> 100 µM	–	> 100 µM	–	–	–	> 100 µM	–	> 100 µM	–	> 100 µM	–	> 100 µM	–	> 100 µM
CN(C)/C=C/c1nnc([N+](=O)[O-])s1	–	31.9 µM	–	36.8 µM	–	–	–	42.1 µM	–	23.4 µM	–	–	–	24.3 µM	–	51.8 µM	–	27.2 µM	–	29.7 µM
COc1ccc(-c2ccc(/C=N/n3c(COc4ccc(Cl)cc4Cl)n[nH]c3=S)o2)c([N+](=O)[O-])c1	45.3 µM	> 100 µM	16.1 µM	33.2 µM	21.3 µM	47.6 µM	23.1 µM	67.1 µM	25.7 µM	49.7 µM	30.3 µM	62.5 µM	–	–	22 µM	> 100 µM	–	–	43.9 µM	> 100 µM
C=CCC1([C@H](C)[C@@H](OC(C)=O)c2cc(OC)c(OC)c(OC)c2)C[C@@H](OC)CCC1=O (stereo partly specified)	–	41.4 µM	–	22.8 µM	–	–	–	50.7 µM	–	30.8 µM	–	52.4 µM	–	> 100 µM	–	26.7 µM	–	–	–	–
CC1CCCCc2nc3c(c(=O)n21)CCCC3 (stereo unspecified)	–	> 100 µM	–	> 100 µM	–	> 100 µM	–	> 100 µM	–	> 100 µM	–	> 100 µM	–	–	–	> 100 µM	–	> 100 µM	–	> 100 µM
CC1=NCCc2c1[nH]c1cc(O)ccc21	–	> 100 µM	–	> 100 µM	–	> 100 µM	–	> 100 µM	–	> 100 µM	–	> 100 µM	–	> 100 µM	–	–	–	> 100 µM	–	> 100 µM
Nc1ccn(Cc2ccc(C34CC5CC(CC(C5)C3)C4)c(O)c2)c(=O)n1	> 100 µM	> 100 µM	54.5 µM	> 100 µM	> 100 µM	> 100 µM	67.1 µM	> 100 µM	42 µM	> 100 µM	> 100 µM	> 100 µM	82.4 µM	> 100 µM	23.6 µM	> 100 µM	–	–	> 100 µM	> 100 µM
